From patent US20220264883A1, “IMIDAZOTHIAZOLE COMPOUNDS AND METHODS FOR TREATING PLANT NEMATODE INFECTIONS” (The Governing Council of the University of Toronto, priority 2019, published 2022)
Like-named read-outs stand apart in the source and are kept apart here.

Tests used:
Format in all cases: in vivo
[1] = system: M. incognita infective juveniles; assay: Meloidogyne incognita dose-response experiments (infective J2 juveniles, FIG. 2); conditions: for nematicidal activity on M. incognita infective juveniles: 5, 15, 45 micromolar, third day after water rinse
Description: M. incognita (Kofoid & White) Chitwood Race 1 (originally isolated in Maryland) was used for all experiments, and were maintained on pepper (Capsicum annuum L.) cv. PA-136 in a greenhouse as previously described^64. Infective J2 juveniles were collected as described in ref. 65. The microwell dose-response experiments were carried out similarly to previously described protocols^64, 66. In brief, 100 J2 s, in 10 μL of deionized water, were added to the wells of 96-well polystyrene plates, after which 190 μL of deionized water containing dissolved chemical, or DMSO alone, was added to each well. The final concentration of DMSO in each well was 0.5% (v/v), except for the water only control which contained no DMSO and no added chemicals. The final concentrations of the chemicals for each dose-response experiment were 5, 15, and 45 μM. The wells were covered with a plastic adhesive strip, and the lids of the plates were sealed with parafilm. The plates were incubated at 25° C. The fraction of active worms was quantified by counting the number of mobile and immobile worms after 1 and 2 days of incubation, and then dividing the number of mobile worms by the total number of worms in the well. After 2 days of incubation, the chemicals were removed and replaced with deionized water (i.e. the water rinse) and the fraction of active worms was quantified 1 day later. A failure of the worms to recover after rinsing with water is consistent with them having been killed by the chemical treatment. Four technical replicates were performed for each treatment.

M. chitwoodi J2 larvae = assay: Meloidogyne chitwoodi in vitro assays (J2 movement); conditions: 45 μM, 2 days, relative to DMSO control
Description: M. incognita (Kofoid & White) Chitwood Race 1 (originally isolated in Maryland) was used for all experiments, and was maintained on pepper (Capsicum annuum L.) cv. PA-136 in a greenhouse as previously described^64. Infective J2 juveniles were collected as described in ref.65. The microwell dose-response experiments were carried out similarly to previously described protocols^64, 66. In brief, 100 J2s, in 10 μL of deionized water, were added to the wells of 96-well polystyrene plates, after which 190 μL of deionized water containing dissolved chemical, or DMSO alone, was added to each well. The chemicals were tested at 45 μM, and the final concentration of DMSO in each well was 0.5% (v/v). The wells were covered with a plastic adhesive strip, and the lids of the plates were sealed with parafilm. The plates were incubated at 25° C. The mobile fraction of worms was quantified by counting the number of mobile and immobile worms after 2 days of incubation, and then dividing the number of mobile worms by the total number of worms in the well. Three technical replicates were performed for each treatment, and an average value for the mobile fraction of worms was calculated across the three replicates. The percent effectiveness at inhibiting nematode movement was calculated by dividing the average value for the chemical treatment by the average value for the DMSO control, then subtracting this value from 1, and then multiplying by 100.
M. chitwoodi race 1 (the strain commonly found in the pacific northwest of the United States) was used for all experiments, and was maintained on tomato plants (Solanum lycopersicum ‘Rutgers’) as previously described^73. The M. chitwoodi in vitro assays were performed identically to the M. incognita in vitro assays (see above).

[2] = system: C. elegans anthelmintic/nematicide-resistant mutants; assay: whole plant or invertebrate; conditions: Caenorhabditis elegans
Description: Forty microliters of an HB101 bacterial suspension in liquid NGM (see above) was added to each well of a 96-well flat-bottom culture plate, after which approximately 25 synchronized L1 worms, in 10 μl of M9 buffer (see ref. 59 for the recipe), were added to each well. The synchronized L1 worms were obtained from an embryo preparation performed the previous day (see ref. 59 for the protocol). For the L1 assays, 0.5 μl of chemical solution (or DMSO alone) was immediately added to the wells using a multichannel pipette, the final DMSO concentration is 1% (v/v). The worms were incubated for 3 days at 20° C. and the number of viable animals was counted. […] Although the counts were performed after 3 days of incubation in the chemical, it was noted that the L1s were dead within 24 hours of the addition of the chemicals. For the L2/L3 assays, the worms were incubated in the absence of chemical for 1 day at 20° C. until they reached the L2/L3 stage, at which point chemical was added as described above. The worms were then allowed to incubate for 2 days at 20° C. and the number of viable animals was counted as described for the L1 assay. For the L4 assays, the worms were incubated for 2 days at 20° C. before the addition of chemicals. The L4-stage worms were then incubated in chemical for an additional day before quantifying the number of viable animals. The adult assays were performed the same way as the L4 assays, however HT115 E. coli carrying the empty dsRNA expressing vector L4440 was used in place of HB101 and the worms were cultured at 25° C. as opposed to 20° C. for the entirety of the experiment. The HT115 suspension was made by concentrating a bacterial culture, with an OD600 of ˜ 0.8, five-fold with liquid NGM containing 1 mM IPTG and 100 μg/ml carbenicillin. The HT115 cells were induced with 1 mM IPTG for one hour before concentrating with NGM.
The dose-response experiments for the anthelmintic/nematicide-resistant mutants were carried out as described for the L1 dose-response assays. One notable exception is the aldicarb-resistant strain PR1152. This strain grows slowly, and so the viability counts were performed 5 days after addition of the chemical, as opposed to 3 days, to allow the DMSO control worms to reach adulthood.
At least three biological replicates were performed for each dose-response assay. For each biological replicate, two technical replicates were performed and the numbers of viable animals for each technical replicate were combined (i.e. ˜50 worms assayed per concentration). The number of viable worms at each concentration was divided by the corresponding DMSO control value to give the “relative viability” for each concentration. The “relative viability” values were then averaged across the biological replicates. LC50 values were calculated using Graphpad Prism. The concentration values were log-transformed and a four-parameter logistic curve was fitted to the dose-response data by non-linear regression, from which the LC50 values were extracted.

[3] = 120 h, read-out: LC50 in strain PR1152
[4] = read-out: LC50 in strain CB1072
[5] = read-out: LC50 in strain CB3474
[6] = read-out: LC50 in strain CF1038
[7] = read-out: LC50 in strain DA1316
[8] = read-out: LC50 in strain NM1968
[9] = read-out: LC50 in strain RP2674

| Compound | nematicidal activity on M. incognita infective juveniles [1] | % effectiveness at reducing M. chitwoodi movement (M. chitwoodi J2 larvae) [%] | LC50 [2, 3] [µM] | LC50 [2, 4] [µM] | LC50 [2, 5] [µM] | LC50 [2, 6] [µM] | LC50 [2, 7] [µM] | LC50 [2, 8] [µM] | LC50 ([2]; read-out: LC50 in strain RB2119) [µM] | LC50 [2, 9] [µM] | LC50 ([2]; read-out: LC50 in strain VC731) [µM] | inhibitory effects on worm activity compared with tioxazafen ([1]; each time point, every concentration tested) | nematode lethality ([1]; lowest concentration assayed (5 micromolar)) [%] |
| --- | --- | --- | --- | --- | --- | --- | --- | --- | --- | --- | --- | --- | --- |
| Fc1ccc(-c2cn3ccsc3n2)cc1 [Ib] | demonstrated nematicidal activity at one or more concentrations | 37.5 | 14.9 | 24.3 | 17 | 16 | 14.5 | 16 | 27.5 | 16.4 | 28.5 |  |  |
| Cc1csc2nc(-c3ccccc3)cn12 [Compound Ie] |  | 24.3 |  |  |  |  |  |  |  |  |  |  |  |
| Clc1ccc(-c2cn3ccsc3n2)cc1 [Ia] | demonstrated nematicidal activity at one or more concentrations |  | 3.7 | 5.7 | 6.4 | 5.7 | 4.6 | 4.4 |  | 4.9 | 6.4 | outperformed the commercial nematicide tioxazafen | 100 |
